Results as given in US20040048900A1, “Nicotine and/or nicotine agonists for the treatment of general anesthetic effects and side effects” (priority 2002, published 2004).
Several values for one entry are separate records, joined by “and”; a condition that tells them apart may be missing. Identical values can stand only once. Entries after “also recorded” stand apart in the source; their conditions may differ.

Legend:
[1] = system: analgesic action of nicotine; conditions: Bitner, 1998; cited from earlier work
[2] = system: female mice; assay: MAC and LORR of isoflurane; type: in vivo
From the text: Isoflurane causes hyperalgesia in female mice. […] Increased HPWL occurred at concentrations above 0.86% that were associated with sedation. MAC in these animals was 1.5±0.1% and LORR (mean partial pressures bracketing postural response and lack of response to placing the animal in a supine position) occurred at 0.59 +0.2% isoflurane.
5-28 mice were studied per group.

[3] = system: ^3H-norepinephrine release from female mouse lumbar spinal cord slice; assay: 3H-norepinephrine release from superfused spinal cord slice; conditions: isoflurane 0.38%
From the text: Spinal Cord Slice Preparation: The spinal cord was dissected from the mouse. Under CO2 narcosis the mouse was decapitated. The spinal column was removed and placed into cold dissection solution where the spinal cord was removed with a dissection microscope. The lumbar section of the cord was isolated and imbedded in a 3% low melting point agar (Fisher Scientific) block made in dissection solution. Transverse 400 micrometer slices were made using a Vibratone VT1000S slicing apparatus (Leica, Whetzlar, Germany). Slicing was performed in ice cold Krebs solution bubbled with 5%CO2/95%O2.
The cord slices were incubated in a solution of 1 ml of Krebs solution and 10 ul of 1-[7,8-^3H] noradrenaline in a closed environment surrounded by Krebs solution bubbled with CO2/O2 for 30 minutes. The slices were transferred into a superfusion and stimulation chamber (Warner Instruments Inc.,) where Krebs solution was allowed to perfuse over them for 30 minutes at a rate of 0.5 ml/min. The superfusion chamber thermostatically temperature controlled at 37° C. The solutions were pumped to the chamber at a constant rate of 0.5 ml/min using a Kwik-Pump 290 (Long). Following a 30 minute period for equilibration, collections were taken every 1-2.5 minutes. Ecolite scintillation fluid (15 ml) was then added to each collection vial. The samples were analyzed for radioactivity (CPM) using a Packard TRI CARB 2100 TR scintillation counter (Meriden, Conn.).
Dissection Krebs Solution (mM) NaCl 125, KCl 2.5, NaHCO3 26, NaH2PO4-H2O1.25, MgCl2 6,CaCl2 1.5, glucose 2.5. Perfusion Krebs Solution (mM) NaCl 125, KCl 2.5, NaHCO3 26, NaH2PO4—H2O 1.25, MgCl2 1,CaCl2 2, glucose 2.5.
After incubation with ^3H-norepinephrine, the cord slices were perfused with buffer for 30 minutes at 0.5 ml/minute. After equilibration, samples containing released ^3H-norepinephrine were collected at 2.5 minute intervals. After determination of baseline release, the slices were stimulated with 1 mM nicotine in the perfusion buffer.

[4] = system: β2 nicotinic knockout male C57/B16 mice; assay: HPWL in β2 nicotinic knockout mice; type: in vivo; conditions: vs wild type controls; 0.28% isoflurane, p<0.001
From the text: The subunit composition of the nicotinic receptors responsible for the analgesic effects of nicotinic agonists is controversial. […] Nicotinic antagonists specific for α7 containing nicotinic achetylcholine receptors can be analgesic in some settings (Damaj, 2000). […] The importance of the nicotinic β2 subunit in male C57/B16 mice and their generation matched wild type controls have been tested (a gift from J. P. Changeux, Institute Pasteur).

[5] = biological target: T1, human α4β2 nAChRs expressed in Xenopus oocytes (Homo sapiens, UniProt P17787+P43681); assay: Two-microelectrode voltage clamp of ACh-activated currents in Xenopus oocytes; type: cell-based
T1 construct: expressed in transfected cells; host or cells: Xenopus laevis oocytes injected with cRNA (1:1 α4 to β2)
Procedure: The human α4 and β2 type nAChRs were in a pSP64 expression vector. Standard techniques were used to linearize the vectors and use them as templates to make cRNA using SP6 as the polymerase. The human nicotinic clones were a gift from Dr. Jon Lindstrom, Ph.D. (Department of Neuroscience, University of Pennsylvania, Philadelphia, Pa.).
Xenopus laevis oocytes were removed from the females and defolliculated with collagenase. After the oocytes rested for 24 hours in L-15 oocyte medium, about 10 ng of a 1:1 ratio of α4 to β2 cRNA were injected into individual oocytes. A manual injector was used for this process (Nanoject; Drummond Scientific, Broomall, Pa.). The oocytes were incubated for 2-5 days in ND-96 medium (NaCl 96 mM, KCl 2 mM, MgCl2 1 mM, CaCl2 H2O 1.8 mM, HEPES 5 mM, Na-pyruvate 2.5 mM, theophylline 0.5 mM, and 10mg/L of gentamicin, adjusted to pH 7.5).
Whole oocytes were used to record currents using a Gene-Clamp 500 two-microelectrode voltage-clamp amplifier with an active ground (Axon Instruments, Inc., Foster, Cailf.). The recording electrodes were pulled from glass capillary tubing (Drummond, Broomall, Pa.) to obtain a resistance between 1 and 5 MΩ and filled with 3M KCl. Ba^2 Ringer's solution was used as the extracellular solution in order to avoid current amplification by calcium activated chloride currents (115 mM NaCl, 2.5 mM KCl, 1.8 mM BaCl2, 10 mM HEPES, 1 μM atropine, pH 7.4). Atropine was included to avoid activation of intrinsic muscarinic receptors. Experiments were performed at room temperature. Isoflurane was prepared from a saturated solution by serial dilution. Concentrations were verified by gas chromatography.
Oocytes were tested at a membrane potential of −60 mV. Bolus application of the agonist +/− indicated antagonist(s) was applied at a rate of 4 ml/min for a 2 second application.
Antagonists were pre-applied for 2 minutes prior to activation. Concentration response curves were made from the percent change in peak current from ACh activation in the presence of antagonist(s), compared to ACh alone. As the ACh concentration at central neuronal nAChRs is unknown, 1 mM ACh (saturating) was used to detect inhibition by isoflurane and mecamylamine experiments with mecamylamine. ACh 2 μM was used to detect potentiation by nicotine. Currents were measured in 5-8 cells for each data point. Clampex 7 (Axon instruments, Foster City, Calif.) was used for data acquisition.
Microcal Origins 5.0 (Microcal, Northampton, Mass.) was used for statistical calculations and graphical presentation. The in vitro data were fit to a modified Hill equation, y=100/(1+(x/IC50)^n), where IC50 is the concentration of drug at which of 50% of the response is inhibited and n is the Hill coefficient.

[6] = system: mice
From the text: Nicotinic acetylcholine receptors are involved in the mechanism of isoflurane hyperalgesia, and nicotinic inhibition could be the initiating event.
How could nicotinic inhibition cause hyperalgesia? Nicotine is thought to exert its analgesic action by increasing the release of norepinephrine, serotonin and acetylcholine onto the relay neurons in the dorsal horn of the spinal cord (Rao, 1996; and Reuter, 2000). Isoflurane might reduce pain threshold by inhibiting nicotinic acetylcholine receptors tonically active in potentiating the release of norepinephrine, serotonin and/or acetylcholine. To test the role of the α-adrenergic system, mice were treated systemically with the adrenergic neurotoxin DSP-4 to deplete norepinephrine levels (Jonsson, 1981). The DSP-4 mice 14 days after treatment were tested for HPWL in the presence of isoflurane alone or isoflurane with nicotine pretreatment (see methods).
To test the role of muscarinic receptors for acetylcholine, mice were treated with the nonspecific muscarinic antagonist, atropine. A cholinergic neurotoxin could not be used for these studies, because removing all cholinergic neurons would have nicotinic in addition to muscarinic effects. Instead, postsynaptic muscarinic blockade was used. ACh causes analgesia, at least in part due to muscarinic stimulation (Chiari, 1999; Smith, 1989; and Lavand'homme, 1999). […] High concentrations of atropine can block nicotinic acetylcholine receptors as well (Zwart, 1997).

[7] = system: male and female mice; assay: HPWL by gender, estrus stage, castration, oophorectomy; type: in vivo; conditions: isoflurane
Procedure: The ovary and oviduct was tied with a double 3.0 polysorb suture. The fascia was closed with 3.0 polysorb and the skin with 4.0 nylon. The procedure was repeated on the other side. The mouse was injected with buprenophine 1 mg/kg prior to emergence for pain control.
Estrogen can directly modulate nicotinic receptors at micromolar concentrations (Paradiso, 2001; Nakazawa, 2001; and Damaj, 2001). Estrogen receptors are co-localized with both nicotinic and muscarinic receptors (Hosli, 2001). Progesterone is inhibitory at nicotinic acetylcholine receptors (Paradiso, 2001; and Damaj, 2001). HPWL was tested at different phases of the female estrus cycle (FIG. 14). […] Oophorectomy (see methods) was performed on six week old female mice. After allowing two weeks for hormonal depletion, and surgical recovery HPWL was again tested.
Furthermore, testosterone was tested to see if it induced a state resistant to isoflurane hyperalgesia. Male mice were castrated and after two weeks for surgical recovery and hormone depletion, hyperalgesia in response to isoflurane was tested. […] In addition to the classical “female hormones”, female mice also have testosterone that is made by the ovary (Halling, 1989). […] Testosterone levels in females decrease after oophorectomy.

T1 sequence (P43681 29-627 limits assumed): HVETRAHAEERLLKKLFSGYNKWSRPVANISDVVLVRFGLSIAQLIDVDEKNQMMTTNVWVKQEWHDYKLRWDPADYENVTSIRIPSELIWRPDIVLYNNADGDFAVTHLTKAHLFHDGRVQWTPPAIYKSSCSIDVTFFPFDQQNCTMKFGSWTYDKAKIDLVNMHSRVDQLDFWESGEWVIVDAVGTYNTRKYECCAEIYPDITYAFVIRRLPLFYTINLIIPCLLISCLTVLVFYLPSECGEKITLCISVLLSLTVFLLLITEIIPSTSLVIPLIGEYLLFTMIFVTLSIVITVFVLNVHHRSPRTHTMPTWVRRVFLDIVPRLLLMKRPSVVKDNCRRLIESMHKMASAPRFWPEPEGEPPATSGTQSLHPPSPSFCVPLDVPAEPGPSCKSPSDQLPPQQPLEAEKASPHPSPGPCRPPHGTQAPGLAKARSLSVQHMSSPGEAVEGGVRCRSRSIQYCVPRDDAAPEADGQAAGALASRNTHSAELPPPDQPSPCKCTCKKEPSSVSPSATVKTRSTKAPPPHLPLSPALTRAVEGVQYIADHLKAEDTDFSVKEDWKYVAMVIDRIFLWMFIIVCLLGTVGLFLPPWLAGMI
T1 sequence (P17787 26-502): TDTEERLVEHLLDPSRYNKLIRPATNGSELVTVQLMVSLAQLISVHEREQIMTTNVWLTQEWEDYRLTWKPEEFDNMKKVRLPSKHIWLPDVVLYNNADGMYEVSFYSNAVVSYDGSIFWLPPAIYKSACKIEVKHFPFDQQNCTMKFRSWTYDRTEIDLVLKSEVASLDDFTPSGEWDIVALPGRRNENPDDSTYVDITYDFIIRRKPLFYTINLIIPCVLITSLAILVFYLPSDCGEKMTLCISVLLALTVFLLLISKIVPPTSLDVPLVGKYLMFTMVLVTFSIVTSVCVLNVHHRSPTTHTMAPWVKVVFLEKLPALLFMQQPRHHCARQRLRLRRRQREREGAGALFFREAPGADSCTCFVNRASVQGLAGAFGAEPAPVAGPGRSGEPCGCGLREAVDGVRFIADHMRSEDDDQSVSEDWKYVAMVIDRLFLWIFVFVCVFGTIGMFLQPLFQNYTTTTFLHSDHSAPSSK

Structure (SMILES) | effect on the analgesic action of nicotine [1] | MAC ([2]; isoflurane in these mice) | LORR ([2]; mean partial pressures bracketing postural response and lack of response to supine placement) | basal norepinephrine release [3] | nicotine facilitated norepinephrine release ([3]; 1 mM nicotine) | hyperalgesic effect of isoflurane in β2 nicotinic knockout mice [4] | mode of antagonism at heteromeric nAChRs [5] | IC50 ([5]; 1 mM ACh, −60 mV, room temperature, read-out: IC50 for inhibition of α4β2 nAChR) | hyperalgesic effect after norepinephrine depletion ([6]; isoflurane, mice 14 days after DSP-4) | isoflurane concentration that caused maximal hyperalgesia ([6]; mouse, in vivo) | hyperalgesic response after oophorectomy ([7]; female mice two weeks after oophorectomy) | hyperalgesic effect by estrus stage ([7]; high estrogen (stages 2 and 3) and high progesterone (stage 5)) | hyperalgesic response in male mice ([7]; intact males) | hyperalgesic response in castrated males ([7]; two weeks after castration)
C[N+](C)(C)CCCCCC[N+](C)(C)C [Hexamethonium] | has no effect on the analgesic action of nicotine |  |  |  |  |  |  |  |  |  |  |  |  | 
FC(F)OC(Cl)C(F)(F)F (centres unmarked) [isoflurane] |  | 1.4% and 1.5±0.1% | 0.59 +0.2% | basal norepinephrine release was reduced | no facilitation by nicotine | clearly reduced in these animals, but not absent; also recorded: Hyperalgesia was reduced | non-competitive antagonists | 44 µM | no hyperalgesic effect at any subanesthetic concentration | 0.38% | more pronounced | less hyperalgesic effect during these stages | less than that in females | increased hyperalgesic responses to isoflurane compared to intact males
